In US20240336642A1 (The General Hospital Corporation, priority 2021, published 2024):
Counter-ions that a name gives are not always drawn.

Biological target: h12/15-LOX (Homo sapiens (Human), UniProt P16050)
Assay: 12/15-LOX enzyme inhibition IC50 assay (Examples 1 and 2)
Format: biochemical
Settings: for Emax: h12/15-LOX, read-out: Max % inhibition
Protocol: Enzyme was then added to the cuvettes. […] The % inhibition for each test compound concentration were calculated as follows: […]

Chain of h12/15-LOX (P16050 whole entry): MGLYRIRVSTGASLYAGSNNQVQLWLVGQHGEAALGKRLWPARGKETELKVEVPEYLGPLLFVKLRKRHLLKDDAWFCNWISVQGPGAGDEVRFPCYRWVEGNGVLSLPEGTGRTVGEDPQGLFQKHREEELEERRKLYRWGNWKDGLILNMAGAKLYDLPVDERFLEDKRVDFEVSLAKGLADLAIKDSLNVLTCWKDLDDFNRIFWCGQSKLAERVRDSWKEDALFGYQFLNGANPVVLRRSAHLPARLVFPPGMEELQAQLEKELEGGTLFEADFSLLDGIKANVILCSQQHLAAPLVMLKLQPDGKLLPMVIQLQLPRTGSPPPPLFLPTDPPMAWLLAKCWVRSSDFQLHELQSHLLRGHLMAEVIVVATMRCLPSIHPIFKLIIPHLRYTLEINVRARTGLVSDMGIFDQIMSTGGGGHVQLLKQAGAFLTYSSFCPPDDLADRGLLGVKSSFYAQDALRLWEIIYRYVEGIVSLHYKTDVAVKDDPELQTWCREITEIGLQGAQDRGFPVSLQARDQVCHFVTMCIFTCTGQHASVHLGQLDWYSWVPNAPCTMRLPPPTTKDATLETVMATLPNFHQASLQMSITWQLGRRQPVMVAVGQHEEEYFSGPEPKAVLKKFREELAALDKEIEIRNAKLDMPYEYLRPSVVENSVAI

SMILES	IC50 [µM]	Emax [%]
N#Cc1nc(-c2cc(Cl)cc(Cl)c2Cl)oc1NCCOCCNc1ccccc1 [Compound 81, 5-((2-(2-(Phenylamino)ethoxy)ethyl)amino)-2-(2,3,5-trichlorophenyl)oxazole-4-carbonitrile]	0.26	95
COCCOCCNc1oc(-c2cc(Cl)cc(Cl)c2C)nc1C#N [Compound 34]	–	100
N#Cc1nc(-c2cc(Cl)cc(Cl)c2Cl)oc1NCC#CCOCc1ccncc1 [Compound 88, 5-((4-(Pyridin-4-ylmethoxy)but-2-yn-1-yl)amino)-2-(2,3,5-trichlorophenyl)oxazole-4-carbonitrile]	0.081	74
Cc1cc(Cl)c(Cl)c(-c2nc(C#N)c(NCCCCO)o2)c1 [Compound 21, 2-(2,3-Dichloro-5-methylphenyl)-5-((4-hydroxybutyl)amino)oxazole-4-carbonitrile]	8	86
COCCNc1oc(-c2cc(Cl)cc(Cl)c2OC(F)F)nc1C#N [Compound 40, 2-(3,5-Dichloro-2-(difluoromethoxy)phenyl)-5-((2-methoxyethyl)amino)oxazole-4-carbonitrile]	0.29	94
N#Cc1nc(-c2cc(Cl)cc(Cl)c2Cl)oc1NCCOCCOc1cncnc1 [Compound 82, 5-((2-(2-(Pyrimidin-5-yloxy)ethoxy)ethyl)amino)-2-(2,3,5-trichlorophenyl)oxazole-4-carbonitrile]	0.36	82
N#Cc1nc(-c2cc(Cl)cc(Cl)c2Cl)oc1NCCOCCOCC(F)(F)F [Compound 71, 2-(2,3,5-Trichlorophenyl)-5-((2-(2-(2,2,2-trifluoroethoxy)ethoxy)ethyl)amino)oxazole-4-carbonitrile]	0.16	95
N#Cc1nc(-c2cc(Cl)cc(Cl)c2Cl)oc1NCCOCCN1CCC(F)(F)C1 [Compound 92, 5-((2-(2-(3,3-Difluoropyrrolidin-1-yl)ethoxy)ethyl)amino)-2-(2,3,5-trichlorophenyl)oxazole-4-carbonitrile]	8.8	86
CNc1oc(-c2cc(Cl)cc(C)c2Cl)nc1C#N [Compound 6, 2-(2,5-Dichloro-3-methylphenyl)-5-(methylamino)oxazole-4-carbonitrile]	0.18	99
CNc1oc(-c2cc(Cl)cc(OC)c2Cl)nc1C#N [Compound 9]	–	71
CN(C)CCCCC(=O)Nc1oc(-c2cc(Cl)cc(Cl)c2Cl)nc1C#N [Compound 64, N-(4-Cyano-2-(2,3,5-trichlorophenyl)oxazol-5-yl)-5-(dimethylamino)pentanamide hydrochloride]	> 20	–
N#Cc1nc(-c2cc(Cl)cc(Cl)c2Cl)oc1NCCOCCOCCF [Compound 70, 5-((2-(2-(2-Fluoroethoxy)ethoxy)ethyl)amino)-2-(2,3,5-trichlorophenyl)oxazole-4-carbonitrile]	1.1	110
CNc1oc(-c2cc(Cl)cc(F)c2Cl)nc1C#N [Compound 7]	> 20	37
CNc1oc(-c2cc(Cl)cc(Cl)c2OC)nc1C#N [Compound 5, 2-(3,5-Dichloro-2-methoxyphenyl)-5-(methylamino)oxazole-4-carbonitrile]	0.18	92
N#Cc1nc(-c2cc(Cl)cc(C(F)(F)F)c2Cl)oc1NCCCCO [Compound 20, 2-(2,5-Dichloro-3-(trifluoromethyl)phenyl)-5-((4-hydroxybutyl)amino)oxazole-4-carbonitrile]	1.5	97
CN(CCOCCNc1oc(-c2cc(Cl)cc(Cl)c2Cl)nc1C#N)CC(F)(F)F [Compound 73, 5-((2-(2-(Methyl(2,2,2-trifluoroethyl)amino)ethoxy)ethyl)amino)-2-(2,3,5-trichlorophenyl)oxazole-4-carbonitrile]	0.47	70
Cc1c(Cl)cc(Cl)cc1-c1nc(C#N)c(NCCCCO)o1 [Compound 19, 2-(3,5-Dichloro-2-methylpheny1)-5-((4-hydroxybutyl)amino)oxazole-4-carbonitrile]	0.46	68
N#Cc1nc(-c2cc(Cl)cc(Cl)c2Cl)oc1NCCOCCN1CCC(F)C1 (stereo not shown) [Compound 78, 5-((2-(2-(3-Fluoropyrrolidin-1-yl)ethoxy)ethyl)amino)-2-(2,3,5-trichlorophenyl)oxazole-4-carbonitrile]	> 20	49
CN(C)CCCCCC(=O)Nc1oc(-c2cc(Cl)cc(Cl)c2Cl)nc1C#N [Compound 63, N-(4-cyano-2-(2,3,5-trichlorophenyl)oxazol-5-yl)-6-(dimethylamino) hexanamide hydrochloride]	> 20	–
N#Cc1nc(-c2cc(Cl)cc(Cl)c2Cl)oc1NCCOCCNc1ccncc1 [Compound 91, 5-((2-(2-(Pyridin-4-ylamino)ethoxy)ethyl)amino)-2-(2,3,5-trichlorophenyl)oxazole-4-carbonitrile]	> 20	–
Cc1c(Cl)cc(Cl)cc1-c1nc(C#N)c(NCCOCCO)o1 [Compound 30]	–	100

SMILES	IC50 [µM]	Emax [%]
COCCOCCOC(=O)Nc1oc(-c2cc(Cl)cc(Cl)c2Cl)nc1C#N [Compound 60, 2-(2-Methoxyethoxy)ethyl (4-cyano-2-(2,3,5-trichlorophenyl)oxazol-5-yl)carbamate]	> 20	–
CN(C)CCCNC(=O)N(C)c1oc(-c2cc(Cl)cc(Cl)c2Cl)nc1C#N [Compound 66, 1-(4-cyano-2-(2,3,5-trichlorophenyl)oxazol-5-yl)-3-(3-(dimethylamino)propyl)-1-methylurea hydrochloride]	> 20	–
CN(CCOCCNc1oc(-c2cc(Cl)cc(Cl)c2Cl)nc1C#N)c1ccccc1 [Compound 95, 5-((2-(2-(Methyl(phenyl)amino)ethoxy)ethyl)amino)-2-(2,3,5-trichlorophenyl)oxazole-4-carbonitrile]	0.26	83
N#Cc1nc(-c2cc(Cl)cc(Cl)c2Cl)oc1NCC#CCOCc1ccc(C(=O)O)cc1 [Compound 89, 4-(((4-((4-Cyano-2-(2,3,5-trichlorophenyl)oxazol-5-yl)amino)but-2-yn-1-yl)oxy)methyl)benzoic acid]	1.3	100
CNc1oc(-c2ccc(Cl)c(Cl)c2Cl)nc1C#N	> 20	49
CNc1oc(-c2cc(F)cc(Cl)c2Cl)nc1C#N [Compound 11, 2-(2,3-Dichloro-5-fluorophenyl)-5-(methylamino)oxazole-4-carbonitrile]	0.87	93
COCCOC(=O)N(C)c1oc(-c2cc(Cl)cc(Cl)c2Cl)nc1C#N [Compound 55, 2-Methoxyethyl (4-cyano-2-(2,3,5-trichlorophenyl)oxazol-5-yl)(methyl)carbamate]	> 20	–
CN(CCF)CCOCCNc1oc(-c2cc(Cl)cc(Cl)c2Cl)nc1C#N [Compound 96, 5-((2-(2-((2-Fluoroethyl)(methyl)amino)ethoxy)ethyl)amino)-2-(2,3,5-trichlorophenyl)oxazole-4-carbonitrile]	4.4	93
N#Cc1nc(-c2cc(Cl)cc(Cl)c2Cl)oc1NCCOCCOc1ccnc(F)c1 [Compound 102, 5-((2-(2-((2-Fluoropyridin-4-yl)oxy)ethoxy)ethyl)amino)-2-(2,3,5-trichlorophenyl)oxazole-4-carbonitrile]	0.11	86
N#Cc1nc(-c2cc(Cl)cc(Cl)c2Cl)oc1NCCOCCOc1ccncc1F [Compound 84, 5-((2-(2-((3-Fluoropyridin-4-yl)oxy)ethoxy)ethyl)amino)-2-(2,3,5-trichlorophenyl)oxazole-4-carbonitrile]	0.49	68
N#Cc1nc(-c2cc(Cl)cc(Cl)c2OC(F)F)oc1NCCCCO [Compound 18, 2-(3,5-Dichloro-2-(difluoromethoxy)phenyl)-5-((4-hydroxybutyl)amino)oxazole-4-carbonitrile]	2	90
N#Cc1nc(-c2cc(Cl)cc(C(F)(F)F)c2Cl)oc1NCCOCCO [Compound 31, 2-(2,5-Dichloro-3-(trifluoromethyl)phenyl)-5-((2-(2-hydroxyethoxy)ethyl)amino)oxazole-4-carbonitrile]	2.4	99
N#Cc1nc(-c2cc(Cl)cc(Cl)c2Cl)oc1NCCOCCN1CCC(F)(F)CC1 [Compound 98, 5-((2-(2-(4,4-Difluoropiperidin-1-yl)ethoxy)ethyl)amino)-2-(2,3,5-trichlorophenyl)oxazole-4-carbonitrile]	3.1	79
CN(C)CCOC(=O)Nc1oc(-c2cc(Cl)cc(Cl)c2Cl)nc1C#N [Compound 59, 2-(Dimethylamino)ethyl (4-cyano-2-(2,3,5-trichlorophenyl)oxazol-5-yl)carbamate hydrochloride]	> 20	–
CNc1oc(-c2cc(Cl)cc(Cl)c2F)nc1C#N [Compound 3, 2-(3,5-Dichloro-2-fluorophenyl)-5-(methylamino)oxazole-4-carbonitrile]	0.33	88
N#Cc1nc(-c2cc(Cl)cc(Cl)c2Cl)oc1NCCOCCN1CCC(F)CC1 [Compound 80, 5-((2-(2-(4-Fluoropiperidin-1-yl)ethoxy)ethyl)amino)-2-(2,3,5-trichlorophenyl)oxazole-4-carbonitrile]	> 20	–
COCCOCCNc1oc(-c2cc(C)cc(Cl)c2Cl)nc1C#N [Compound 38, 2-(2,3-Dichloro-5-methylphenyl)-5-((2-(2-methoxyethoxy)ethyl)amino)oxazole-4-carbonitrile]	6.6	100
N#Cc1nc(-c2cc(Cl)cc(C(F)(F)F)c2Cl)oc1NCCCCCO [Compound 27, 2-(2,5-Dichloro-3-(trifluoromethyl)phenyl)-5-((5-hydroxypentyl)amino)oxazole-4-carbonitrile]	0.55	70
N#Cc1nc(-c2cc(Cl)cc(Cl)c2Cl)oc1NCCOCCN1CCCC(F)(F)C1 [Compound 75, 5-((2-(2-(3,3-Difluoropiperidin-1-yl)ethoxy)ethyl)amino)-2-(2,3,5-trichlorophenyl)oxazole-4-carbonitrile]	1.1	61
N#Cc1nc(-c2cc(Cl)cc(Cl)c2Cl)oc1NCC#CCOCc1ccc(OCCN2CCOCC2)cc1 [Compound 87]	–	94
